Source: ChEMBL document CHEMBL3137667, “[Drug-induced liver injury; fourteenth updated edition of the bibliographic database of liver injuries and related drugs]” (Gastroenterol Clin Biol, 2004)

Legend:
[1] = Times to onset, minimal and maximal, observed in the indexed observations. [column 'DELAI' in source]; details: human
[2] = human
[3] = Highest frequency of acute liver toxicity observed during clinical trials, expressed as a percentage. [column '% AIGUE' in source]; details: human
[4] = human; remark: listed apart in the source
[5] = human, serum
[6] = human, serum, 4383 h
[7] = Comments (NB not yet translated). [column 'COMMENTAIRES' in source]; details: human
[8] = Presence of at least one case with successful reintroduction. [column 'REINT' in source]; details: human
[9] = Highest frequency of moderate liver toxicity observed during clinical trials, expressed as a percentage. [column '% BIOL' in source]; details: human
[10] = human; remark: listed apart in the source
[11] = human, serum; remark: listed apart in the source
[12] = human; remark: listed apart in the source
[13] = human; remark: listed apart in the source
[14] = human; remark: listed apart in the source
[15] = Proposed mechanism(s) of liver damage. [column 'MEC' in source]; details: human
[16] = human; remark: listed apart in the source
[17] = human; remark: listed apart in the source
[18] = human; remark: listed apart in the source
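Throughout, for Hepatotoxicity (association with vascular disease): count of indexed literature references reporting vascular liver injury in humans, e.g. peliosis hepatitis, hepatic veno-occlusive disease or Budd-Chiari syndrome.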
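Throughout, for Hepatotoxicity (benign tumour): value is a count of indexed literature references citing a benign tumour confirmed by histopathology.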
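Throughout, for Hepatotoxicity (choleostasis): human cholestatic liver injury, shown by histopathology or by peak ALT or AST elevation over alkaline phosphatase ratio below 2, value counts indexed literature reports.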
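Throughout, for Hepatotoxicity (chronic liver disease): chronic liver injury confirmed by histopathology or persistently raised serum aminotransferase activity beyond 6 months, value given as the count of indexed literature references.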
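Throughout, for Hepatotoxicity (cirrhosis): value is a count of indexed literature references reporting cirrhosis confirmed by histopathology.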
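Throughout, for Hepatotoxicity (cytolytic): human cytolytic liver injury, shown by histopathology or by a ratio above 5 of peak ALT or AST elevation to alkaline phosphatase elevation, value counts indexed references.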
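Throughout, for Hepatotoxicity (granulomatous hepatitis): value is a count of indexed literature references reporting granulomatous liver disease confirmed by histopathology.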
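Throughout, for Hepatotoxicity (malignant tumour): malignant tumour confirmed by histopathology, value gives the count of indexed literature references reporting it.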
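Throughout, for Hepatotoxicity (severe hepatitis): human clinical data: severe hepatitis, meaning potentially life-threatening liver failure or clinically observed cases, the value counts how many indexed literature references report it.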
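Throughout, for Hepatotoxicity (steatosis): steatosis confirmed by histopathology, value is the count of indexed references.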

SMILES | Hepatotoxicity (time to onset) [1] | Hepatotoxicity (granulomatous hepatitis) [2] | Hepatotoxicity (acute) [3] [%] | Hepatotoxicity (benign tumour) [4] | Hepatotoxicity (moderate) [5] | Hepatotoxicity (chronic liver disease) [6] | Hepatotoxicity (comment) [7] | Hepatotoxicity (successful reintroduction) [8] | Hepatotoxicity (moderate) [9] [%] | Hepatotoxicity (association with vascular disease) [10] | Hepatotoxicity (acute) [11] | Hepatotoxicity (cirrhosis) [12] | Hepatotoxicity (steatosis) [13] | Hepatotoxicity (cytolytic) [14] | Hepatotoxicity (mechanism) [15] | Hepatotoxicity (malignant tumour) [16] | Hepatotoxicity (choleostasis) [17] | Hepatotoxicity (severe hepatitis) [18] | other results
C[C@](N)(Cc1ccc(O)c(O)c1)C(=O)O [METHYLDOPA] | 3 days - 12 years | 8 | 1.3 | 0 | 10 | 27 | AC_ANTI-N/-ML/-MF RC/ALLOPURINOL | yes | 35 | 0 | 24 | 7 | 3 | 16 | Allergic, Toxic | 1 | 10 | 13 | –
CN1CCN2c3ccccc3Cc3ccccc3C2C1 (stereo unspecified) [MIANSERIN] | 1 day - 1.8 years | 0 | 0 | 0 | 3 | 0 | RC/NOMIFENSINE | yes | 26 | 0 | 5 | 0 | 0 | 3 | Dose-dependant, Reactive metabolite | 0 | 5 | 0 | –
CCn1cc(C(=O)O)c(=O)c2cc(F)c(N3CCNCC3)cc21 [NORFLOXACIN] | 1 day - 10 days | – | – | 0 | 15 | 0 | AC_ANTI-N | yes | – | 0 | 9 | 0 | 0 | – | – | 0 | – | – | Hepatotoxicity (granulomatous hepatitis) ([2]; Liver): 0; Hepatotoxicity (acute) ([3]; Liver): 0%; Hepatotoxicity (moderate) ([9]; Liver): 7.7%; Hepatotoxicity (cytolytic) ([14]; Liver): 3; Hepatotoxicity (mechanism) ([15]; Liver): Allergic; Hepatotoxicity (choleostasis) ([17]; Liver): 6; Hepatotoxicity (severe hepatitis) ([18]; Liver): 0
Cc1ncc([N+](=O)[O-])n1CC(O)CCl (stereo unspecified) [ORNIDAZOLE] | 3 days - 6 months | 0 | 0 | 0 | 1 | 1 | AC_ANTI-ML/-N | yes | 0 | 0 | 2 | 0 | 0 | 2 | Allergic | 0 | 0 | 0 | –
Cc1onc(-c2ccccc2)c1C(=O)N[C@@H]1C(=O)N2[C@@H]1SC(C)(C)[C@@H]2C(=O)O [OXACILLIN] | 2 days - 2.5 months | 1 | 22 | 0 | 12 | 0 | RC/CEFALOTINE/NAFCILLINE | yes | 81 | 0 | 17 | 0 | 1 | 14 | Allergic, Toxic Metabolite | 0 | 4 | 0 | –
O=C1Nc2ccccc2C1(c1ccc(O)cc1)c1ccc(O)cc1 [OXYPHENISATINE] | 1 week - 13 years | 0 | 0 | 0 | 0 | 27 | AC_ANTI-ADN/-N/-ML | yes | 0 | 0 | 6 | 8 | 0 | 1 | Allergic | 0 | 0 | 1 | –
COc1ccc(Cc2nccc3cc(OC)c(OC)cc23)cc1OC [PAPAVERINE] | 1 day - 11 years | 1 | 3.3 | 0 | 11 | 4 | AC_ANTI-ADN/-N PERICHOLANGITE | yes | 53 | 0 | 9 | 3 | 0 | 7 | Allergic, Toxic Metabolite | 0 | 6 | 0 | –
NC1=NC(=O)C(c2ccccc2)O1 (stereo unspecified) [PEMOLINE] | 3 days - 3 years | 0 | 0.3 | 0 | 4 | 0 | AC_ANTI-MF/-N AGGRAVATION_HEPATITE_AUTOIMMUNE | yes | 2 | 0 | 16 | 0 | 1 | 14 | Allergic, Dose-dependant | 0 | 0 | 10 | –
CC(C)(S)[C@@H](N)C(=O)O [PENICILLAMINE] | 4 days - 2 years | 2 | 0 | 0 | 12 | 1 | CHOLESTASE_PROLONGEE CHOLANGITE | yes | 6 | 0 | 31 | 0 | 5 | 5 | Allergic | 0 | 28 | 0 | –
CCC1(c2ccccc2)C(=O)NC(=O)NC1=O [PHENOBARBITAL] | 6 days - 2 years | 1 | 0 | 0 | 8 | 1 | I/PARACETAMOL AC_ANTI-N/-MF CHOLANGITE | yes | 0 | 0 | 30 | 0 | 1 | 23 | Allergic | 0 | 4 | 10 | –
CCC(c1ccccc1)c1c(O)c2ccccc2oc1=O (stereo unspecified) [PHENPROCOUMON] | 6 days - 7 years | 1 | 0 | 0 | 2 | 1 | RC/ACENOCOUMAROL/WARFARINE CHOLANGITE AC_ANTI-ML/-N | yes | 37 | 0 | 18 | 1 | 0 | 14 | Allergic | 0 | 7 | 4 | –
O=C1NC(=O)C(c2ccccc2)(c2ccccc2)N1 [PHENYTOIN] | 1 day - 11 years | – | – | 0 | 29 | 6 | #MNI CHOLESTASE_PROLONGEE DUCTOPENIE #CBP | yes | – | 0 | 84 | 0 | 4 | – | – | 0 | – | – | Hepatotoxicity (granulomatous hepatitis) ([2]; Liver): 5; Hepatotoxicity (acute) ([3]; Liver): 2%; Hepatotoxicity (moderate) ([9]; Liver): 90%; Hepatotoxicity (cytolytic) ([14]; Liver): 53; Hepatotoxicity (mechanism) ([15]; Liver): Allergic, Reactive metabolite; Hepatotoxicity (choleostasis) ([17]; Liver): 30; Hepatotoxicity (severe hepatitis) ([18]; Liver): 14
